Reference: patent US8987320B2, “Solid salt forms of a pyrrole substituted 2-indolinone” (Zoetis LLC, priority 2005, dated 2015)
≈ marks a conversion by molar mass, not a printed value. Blank lines part the entries; values can stand above or below the compound they belong to.

Key:
KIT = settings: in vitro, cited from earlier work
[1] = Solubility of Compound I in pH 6 phosphate buffer; type: physicochemical; settings: aqueous buffer; pH 6 phosphate buffer at 25° C.
Procedure: Compound I readily crystallizes. Its solubility is about 10 μg/mL in pH 6 phosphate buffer at 25° C. When the compound was synthesized, very fine particles precipitated out of solution during the last step of synthesis. Subsequent isolation of these fine particles by filtration was slow, and a hard cake resulted after filtration. There is a need for a salt of Compound I which has physical stability and desirable physical properties.

[2] = design: species or system rodent; settings: in vivo
Procedure: Based on preclinical work in rodent models, the therapeutic range of Compound I for target inhibition was considered to be 50-100 ng/ml for 12 h of a 24-h dosing period. […] In one animal, the plasma concentration of Compound I phosphate was outside the range of the other samples (0.3 ng/ml).

[3] = Dynamic moisture sorption gravimetry (DMSG) of salts of Compound I; type: physicochemical
Procedure: Dynamic Moisture Sorption Gravimetry (DMSG).
DMSG isotherm was collected on a temperature controlled atmospheric microbalance. Approximately 10 mg samples were placed in the sample pan of the balance. The humidity was sequentially varied from room relative humidity (RH) to 0% RH and was then increased to 90% RH followed by a decrease of RH to 0% again in 3% RH steps. The mass was then measured every two minutes. The RH was stepped to the next target value when change of the sample mass was less than 0.5 μg in 10 min. The Visual Basic program dmsgscn2.exe was used to control the data collection and export the information to an Excel spreadsheet.

canine MCTs = settings: dog, in vivo; cited from earlier work
[4] = Estimation of solubility in various solvents by step-wise solvent addition; type: physicochemical; settings: 23 °C, organic solvent or mixture, thermodynamic from solid, 23° C., read-out: Estimated solubility
Procedure: Samples of 1-2 mg of Compound I phosphate (lot 35282-CS-51) were transferred to 10 mL glass vials (tared) and were weighed (accurate to 0.1 mg). Solvents were added to the vials (one solvent to each vial) in a step-wise fashion, with 0.5 mL of solvent added at each step. Solvents used were buffer (pH=2), buffer (pH=5), water, methanol, tetrahydrofuran (THF), acetonitrile, and acetone. After each addition, the vial was capped and shaken. The dissolution of solid was visually observed. If no obvious dissolution was observed, more solvent was added immediately. If dissolution was apparent, the vial was left on the bench for at least 30 minutes before the next addition of solvent. This step was repeated until no crystals were visible against a black and a white background. The solubility was then bracketed by dividing the weight of the compound by the final volume and the volume before the last addition. If a solid remained after the addition of 10 mL of solvent, the solubility was expressed as less than the weight divided by the final volume. If the solid was completely dissolved after the first addition of solvent, the solubility was expressed as greater than the weight divided by the solvent volume. All experiments were conducted at room temperature.

[5] = Relative physical stability of Compound I phosphate polymorphs standing in solvent; type: physicochemical; settings: among non-solvated polymorphs, in contact with solvent
Procedure: Such concentrated solutions were prepared by dissolving Compound I free base in about 1 M phosphoric acid. For example, about 70 mg of Compound I free base could be dissolved in 1 mL of 1 M phosphoric acid. However, the amount of Compound I free base and phosphoric acid used depended on the desired concentration and batch size of the solution. In the example in which the precipitate was vacuum filtered immediately after precipitation, about 1 mL of the desired solution was then dripped into about 10 mL of ten anti-solvents to precipitate the salt crystals out. These solvents were water plus acetonitrile (ANC), ethanol, methanol, acetone, acetonitrile, THF, ethyl acetate, hexane, methylene chloride (CH2Cl2), and isopropyl alcohol (IPA). In the example in which the precipitate was vacuum filtered after standing overnight or for three days, the additional solvents of methyl ethyl ketone (MEK) and dioxane were used. Some organic solvents, e.g., ethyl acetate, hexane, CH2C12, are not miscible with water and two layers of solvents were observed. […] In those cases, about 1 mL of methanol was added as a bridging solvent, to increase the miscibility between the two layers. Methanol appeared to work well to increase the miscibility because colorless organic layer became yellow as soon as methanol was added. […] The powder was then analyzed. […]

solubility [1]: ~10 µg/mL (≈ 25.2 µM)
therapeutic range for target inhibition (plasma) [2]: 50 to 100 ng/mL
% water at 80% RH [3]: ~1%
Compound: Cc1[nH]c(/C=C2\C(=O)Nc3ccc(F)cc32)c(C)c1C(=O)NCCN1CCCC1 [Compound I, 5-[5-fluoro-2-oxo-1,2-dihydro-indol-(3Z)-ylidenemethyl]-2,4-dimethyl-1H-pyrrole-3-carboxylic acid (2-pyrrolidin-1-yl-ethyl)-amide]
potency of blocking phosphorylation of wild-type vs ITD mutant KIT (KIT; cellular assays): comparable potency
effect on malignant mast cell lines expressing various forms of mutant KIT (KIT): inhibit KIT phosphorylation, arrest cell proliferation, and induce cell cycle arrest and apoptosis
canine MCTs with durable objective responses (partial and complete responses) (canine MCTs): 11 of 22 canine MCTs

solubility ([4]; acetone, Acetone): < 160 µg/mL
solubility ([4]; acetonitrile, Acetonitrile): < 80 µg/mL
solubility ([4]; methanol, methanol): 210 to 310 µg/mL (≈ 530 to 782 µM)
solubility ([4]; tetrahydrofuran (THF), THF): 320 to 400 µg/mL (≈ 807 to 1010 µM)
Compound: Cc1[nH]c(/C=C2\C(=O)Nc3ccc(F)cc32)c(C)c1C(=O)NCCN1CCCC1 [Compound I free base (polymorph Form A), 5-[5-fluoro-2-oxo-1,2-dihydro-indol-(3Z)-ylidenemethyl]-2,4-dimethyl-1H-pyrrole-3-carboxylic acid (2-pyrrolidin-1-yl-ethyl)-amide]

relative stability of the solid phase [5]: most stable solid phase
Compound: Cc1[nH]c(/C=C2\C(=O)Nc3ccc(F)cc32)c(C)c1C(=O)NCCN1CCCC1 [Form I]

% water at 80% RH [3]: ~3.8%
water at 80 percent humidity ([3]; 80 percent relative humidity): about 3.8%
Compound: Cc1[nH]c(/C=C2\C(=O)Nc3ccc(F)cc32)c(C)c1C(=O)NCCN1CCCC1.O=C(O)CC(O)(CC(=O)O)C(=O)O [Compound I citrate]
